Test results reported in patent US20170217914A1, “Novel Triarylethylene Compounds and Methods Using Same” (The Penn State Research Foundation, priority 2014, published 2017).
Where two headings read alike, the source gives them in different places.

Legend:
[1] = test system: MCF-7 cells; assay: Live/Dead assay by flow cytometry, MCF-7 cells; type: cell-based, human; settings: 24 h
Text: (§1) To measure cell death, the Live/Dead assay (Life technologies, USA) was used, which determines intracellular esterase activity and plasma membrane integrity (Pandey et al., 2013, PloS One 8:e78570). Nonfluorescent polyanionic dye calcein AM is retained by live cells and by enzymatic conversion (esterase) it becomes fluorescent, produces intense green fluorescence in live cells. Ethidium homodimer enters cells with damaged membranes and binds to nucleic acids, thereby producing a bright red fluorescence in dead cells. […] Cells were stained with the Live and Dead reagent (5 μM ethidium homodimer and 5 μM calcein-AM) and analyzed by flow cytometry according to the manufacture's protocols.

[2] = test system: MCF-7 (ER-positive) human breast cancer cell line; assay: MTT cell viability assay, MCF-7 cells; settings: for anticancer activity in initial screening: 0.5-25 μM, 48 h (FIG. 3); for times more cytotoxic than Tamoxifen / times more effective than Ospemifene: 96 h time point; for IC50: Homo sapiens; for cytotoxic activity: 72 h, versus Ospemifene and Tamoxifen
Protocol: (§3) An MTT solution was added to each well and incubated for 3 h at 37° C. After 3 h, DMSO was added and the optical density was measured at 570 nm using a 96-well multiscanner (Dynex Technologies, MRX Revelation; Chantilly, Va., USA). Backgrounds were subtracted at 630 nm. IC50 values were calculated by non-linear regression analysis using Prism software.
(§4) The effects of novel triarylethylene derivatives on the cell viability were determined by the MTT uptake method using previously described methods (Kaur et al., 2014, Eur. J. Med. Chem. 86:211-218). Briefly, 3000 cells were incubated with various concentrations of compounds in triplicate in a 96-well plate for 72 h at 37° C. An MTT solution was added to each well and incubated for 3 h at 37° C. After 3 h, DMSO was added and the optical density was measured at 570 nm using a 96-well multiscanner (Dynex Technologies, MRX Revelation; Chantilly, Va., USA). Backgrounds were subtracted at 630 nm. IC50 values were calculated by non-linear regression analysis using Prism software.

[3] = test system: MDA-MB-231 (ER-negative) human breast cancer cell line; assay: MTT cell viability assay, MDA-MB-231 cells; settings: for anticancer activity in initial screening: 0.5-25 μM, 48 h (FIG. 3); for times more cytotoxic than Tamoxifen / times more effective than Ospemifene: 96 h time point; for IC50: Homo sapiens; for cytotoxic activity: 72 h, versus Ospemifene and Tamoxifen
Protocol: as §3, §4

[4] = test system: normal mouse embryonic fibroblast (MEF) cells; assay: MTT cell viability assay, normal MEF cells; settings: 48 h
Protocol: as §3

[5] = test system: MDA-MB-231 cells; assay: Live/Dead assay by flow cytometry, MDA-MB-231 cells; type: cell-based, human; settings: 24 h, 10 μM
Text: as §1

[6] = test system: MMP-9; assay: Western blot, MMP-9 expression in breast cancer cells; type: cell-based, human; settings: MDA-MB-231 and MCF-7 cells, 24 h
Protocol: (§2) To determine the effect of novel triarylethylene derivatives on proteins involved in metastasis, and adhesion, whole-cell extracts were prepared by subjecting cells to lysis in RIPA buffer supplemented with protease and phosphatase inhibitor cocktails using previously described methods (Pandey et al., 2014, Exp. Hematol. 42:883-896). Lysates were spun at 15,000 rpm for 10 minutes to remove insoluble material. Supernatant were collected and kept at −80° C. Lysates were resolved by SDS-PAGE. After electrophoresis, the proteins were electro-transferred to PVDF membranes, blotted with the relevant antibodies, and detected by enhanced chemo-luminescence reagent.

[7] = test system: c-Myc; assay: Western blot, c-Myc expression in breast cancer cells; type: cell-based, human; settings: MDA-MB-231 and MCF-7 cells, 24 h
Protocol: as §2

[8] = test system: caveolin; assay: Western blot, caveolin expression in breast cancer cells; type: cell-based, human; settings: MDA-MB-231 and MCF-7 cells, 24 h
Protocol: as §2

[9] = test system: MDA-MB-231 cells; assay: In vitro Matrigel invasion assay; type: cell-based, human; settings: dose dependent
Protocol: Human breast cancer MDA-MB-231 cells were serum starved for 24 h in serum-free medium (DMEM without FBS). After starving 50,000 cells were transferred onto Matrigel pre-coated invasion inserts (upper chamber, BD Biocoat). Lower chambers of plate were filled with complete medium (DMEM and 10% FBS) and cells were allowed to migrate under chemotaxis. […] After incubation cells that had invaded to the opposite side of the Transwell membrane were washed with PBS and fixed in chilled 70% ethanol for 15 min and air dried. Cells were stained with 0.5% crystal violet for 10 min. Cells were washed, dried, and images were captured at 40× magnification.

[10] = MCF7, 48 h, read-out: MCF-7 (ER positive) IC50
[11] = MCF7, 96 h, read-out: MCF-7 (ER positive) IC50
[12] = MDA-MB-231, 48 h, read-out: MDA-MB-231 (ER− negative) IC50
[13] = MDA-MB-231, 96 h, read-out: MDA-MB-231 (ER− negative) IC50
[14] = MCF7, 72 h, read-out: MCF-7 IC50
[15] = MDA-MB-231, 72 h, read-out: MDA-MB-231 IC50

NCC/C(=C(\c1ccccc1)c1ccc(OCCO)cc1)c1ccccc1 [Compound 6, (Z)-2-{4-(4-amino-1,2-diphenylbut-1-enyl)phenoxy}ethanol]
dead cells ([1]; increasing amount of compound): 50-70% | anticancer activity in initial screening [2]: more potent than Ospemifene | times more cytotoxic than Tamoxifen [2]: at least five | times more effective than Ospemifene [2]: about five | IC50 [2, 10]: 15.9 µM | IC50 [2, 11]: 12.4 µM | anticancer activity in initial screening [3]: more potent than Ospemifene | times more cytotoxic than Tamoxifen [3]: at least five | times more effective than Ospemifene [3]: eight | IC50 [3, 12]: 25 µM | IC50 [3, 13]: 14.5 µM | toxicity to normal MEF cells [4]: non-toxic

NCCOc1ccc(/C(=C(/CCN)c2ccccc2)c2ccccc2)cc1 [Compound 7, (Z)-4-{4-(2-aminoethoxy)phenyl}-3,4-diphenylbut-3-en-1-amine]
cells killed ([1]; 10 μM): 70% | cells killed [5]: 70% | anticancer activity in initial screening [2]: more potent than Ospemifene | times more cytotoxic than Tamoxifen [2]: at least five | times more effective than Ospemifene [2]: about five | IC50 [2, 10]: 23.6 µM | IC50 [2, 11]: 11.2 µM | anticancer activity in initial screening [3]: more potent than Ospemifene | times more cytotoxic than Tamoxifen [3]: at least five | times more effective than Ospemifene [3]: eight | IC50 [3, 12]: 17.1 µM | IC50 [3, 13]: 13.4 µM | toxicity to normal MEF cells [4]: non-toxic

COc1ccc(/C(=C(/CCN)c2ccccc2)c2ccccc2)cc1 [Compound 13, (Z)-4-(4-Methoxyphenyl)-3,4-diphenylbut-3-en-1-amine]
expression of MMP-9 [6]: inhibited the expression | expression of c-Myc [7]: inhibited the expression | expression of caveolin [8]: inhibited the expression | melting point: 129 to 131 °C | effectiveness versus Ospemifene and Tamoxifen ([2]; MTT, 0.5-100 μM, 48 h (FIG. 28B)): more effective | cytotoxic activity ([2]; MTT): remarkable activity | effectiveness versus Ospemifene and Tamoxifen ([3]; MTT, 0.5-100 μM, 48 h (FIG. 28A)): more effective | cytotoxic activity ([3]; MTT): remarkable activity

COc1ccc(/C(=C(/CCNC(=O)C(=O)NCc2ccccc2)c2ccccc2)c2ccccc2)cc1 [Compound 22, (Z)—N1-Benzyl-N2-(4-(4-methoxyphenyl)-3,4-diphenylbut-3-enyl)oxalamide]
expression of MMP-9 [6]: inhibited the expression | expression of c-Myc [7]: inhibited the expression | expression of caveolin [8]: did not inhibit the expression | melting point: 169 to 172 °C | IC50 [2, 14]: > 50 µM | IC50 [3, 15]: 11.5 ± 3.8 µM | cytotoxic activity ([3]; MTT): selectively cytotoxic

COc1ccc(/C(=C(/CCNC(=O)C(=O)NC2CCCCC2)c2ccccc2)c2ccccc2)cc1 [Compound 23, (Z)—N1-Cyclohexyl-N2-(4-(4-methoxyphenyl)-3,4-diphenylbut-3-enyl)oxalamide]
expression of MMP-9 [6]: inhibited the expression | expression of c-Myc [7]: inhibited the expression | expression of caveolin [8]: did not inhibit the expression | melting point: 198 to 199 °C | IC50 [2, 14]: 12.1 ± 4.5 µM | cytotoxic activity ([2]; MTT): remarkable activity | IC50 [3, 15]: 12.2 ± 5.3 µM | cytotoxic activity ([3]; MTT): remarkable activity

OCCOc1ccc(/C(=C(/CCCl)c2ccccc2)c2ccccc2)cc1 [Ospemifene, (Z)-2-{4-(4-chloro-1,2-diphenylbut-1-enyl)phenoxy}ethanol, reference compound]
IC50 [2, 10]: > 100 µM | IC50 [2, 11]: 55 µM | cell death ([2]; initial screening, 25 μM): ~40% | IC50 [3, 12]: > 100 µM | IC50 [3, 13]: > 100 µM | toxicity to normal MEF cells [4]: non-toxic

(Z)-[4-azido-1-{4-(2-azidoethoxy) phenyl}but-1-ene-1,2-diyl]dibenzene [Compound 5]
expression of MMP-9 [6]: inhibited the expression | expression of c-Myc [7]: inhibited the expression | expression of caveolin [8]: inhibited the expression | effect on invasion of ER-negative cells [9]: suppressed the invasion | cytotoxic activity ([2]; MTT): much more effective than the standards | cytotoxic activity ([3]; MTT): much more effective than the standards
